Assay results reported in US20060270727A1, “Small molecule therapeutics and uses therefor” (priority 2005, published 2006).
Like-named read-outs stand apart in the source and are kept apart here.

How the values were obtained:
[1] = molecular target: GAA·TTC duplex repeats in the frataxin gene; radiolabeled PCR product containing a (GAA)6 sequence; test: Quantitative DNase I footprinting on (GAA)6 DNA; type: binding; details: for sequence specificity: DNase I footprinting; for binding affinity for duplex GAA•TTC repeat DNA, in words: compared with FA1
Source text: Targeting GAA Repeat DNA with Polyamides. β-Alanine linked polyamides FA1-FA6 were synthesized (see Example 6) with sequence, theoretical DNA binding site, theoretical DNA binding site SEQ ID NO: ______) and binding affinity as shown in Table 1. […] Those of skill in the art will recognize that this value may be an underestimation of the affinity of this molecule for GAA repeat DNA since the KD measurements are limited by a minimum DNA concentration of ˜2 pM in the binding reaction. Radiolabeling of nucleic acid incorporated γ^32P ATP and polynucleotide kinase used standard procedures.
Polyamlde Synthesis and Characterization. Polyamides were synthesized by solid phase methods (Urbach & Dervan, Id.; Baird & Dervan, 1996, J. Am. Chem. Soc. 118:6141-6146) and their identity and purity verified by MALDI-TOF MS and analytical HPLC, using methods well known in the art. Fluorescent conjugates were prepared by coupling BODIPY (Molecular Probes) to the carboxyl-terminus (Best et al., 2003, Proc. Natl. Acad. Sci. U.S.A. 100:12063-12068). Binding affinities for match and mismatch sites were determined by quantitative DNase I footprinting (Trauger & Dervan, Id). A plasmid harboring six GAA repeats was constructed by cloning the oligonucleotide
in the pCR2.1 TOPO vector (Invitrogen, Calif.), and a 117 bp singly end-labeled PCR product was generated from this plasmid with the following oligonucleotides:
where the second oligonucleotide was labeled with γ-^32P ATP and polynucleotide kinase, using standard procedures, to generate a PCR product labeled on the GAA strand. A 204 bp singly end-labeled PCR product was derived from plasmid pMP142 DNA, containing 33 GAA repeats (Ohshima et al., Id.), with following oligonucleotides: […]

[2] = system: sticky DNA in plasmid pRW4886, two tracts of (GAA)176; test: Sticky DNA disruption, EcoNI digestion and agarose gel; type: biochemical; details: 37° C., 1 hr
Experimental: Influence of Polyamides on Sticky DNA Conformation. Plasmid pRW4886, which contains two tracts of (GAA)176 (SEQ ID NO: ______) in a direct repeat orientation (Vetcher et al., 2002b, Id)., and forms sticky DNA, was treated with polyamides at concentrations of 0-50 μM at 37° C. for 1 hr. Restriction digestion with EcoNI following the polyamide incubation enabled visualization of the presence or absence of an EcoNI cleaved sticky DNA band that runs with decreased mobility compared to the linearized plasmid on 1% agarose gels. Quantitation was by densitometric analysis using Fluor Chem version 3.04 (Alpha Innotech Corp).
The capacity of sequence-specific polyamides to disrupt the intramolecular sticky DNA structure formed by GAA repeat tracts was investigated. Plasmids harboring the sticky DNA structure are visualized by gel electrophoresis after restriction endonuclease cleavage, by methods well known in the art. […] Plasmid pRW4886, which contains two tracts of (GAA)176 (SEQ ID NO: ______) in a direct repeat orientation (Vetcher et al., 2002b, Id.), was incubated with each of polyamides FA1, FA2, FA3 and FA4 at concentrations ranging from 0-50 μM. The polyamide-bound DNA was then digested with EcoNI and subjected to electrophoresis on 1% agarose gels to determine the amount of EcoNI cleaved sticky DNA retarded band present. Incubation of pRW4886 DNA with FA3 shifted the equilibrium from a maximum amount of sticky DNA to a complete loss of the EcoNI cleaved sticky DNA retarded band at a concentration of 50 nM. […] For FA1, a 1 μM concentration was needed to dissociate the DNA-DNA structure-forming region. […] Since sticky DNA inhibits transcription (Ohshima et al., Id.; Sakamoto et al., 2001, J. Biol. Chem. 276:27171-27177), and since the polyamides destabilize this conformation by shifting the structural equilibrium to duplex B-type DNA, it is highly likely that the increases in frataxin mRNA observed with polyamide FA1 are due to this structural transition.

[3] = system: frataxin mRNA in GM15850 FRDA lymphoid cell line; test: qRT-PCR of frataxin mRNA, FRDA cell line; type: cell-based, human; details: GM15850 FRDA cell line; 7 days incubation
Source text: GAA Specific Polyamides Up Regulate Frataxin mRNA and Protein. To assess whether polyamides alleviate transcription inhibition caused by expanded GAA repeats in the frataxin gene, quantitative real time/reverse transcriptase PCR (qRT-PCR) was used to monitor frataxin mRNA levels in the GM15850 and GM15851 lymphoid cell lines described above; levels of glyceraldehyde 3-phosphate dehydrogenase (GAPDH) mRNA were used as an internal control for each RNA sample; see Example 8. No differences in GAPDH were found between the two cell lines. […] No changes in frataxin mRNA levels were observed on shorter incubation times.
Cell Culture. Epstein Barr virus transformed lymphoblast cell lines GM15850 from a FRDA patient (alleles with 650 and 1030 GAA repeats in the frataxin gene, from the Coriell Cell Repository, Camden, N.J.), and GM15851 from an unaffected sibling (normal range of repeats), were propagated in RMPI 1640 medium with 2 mM L-glutamine and 15% fetal bovine serum at 37° C. in 5% CO2. Cell growth and morphology were monitored by phase contrast microscopy and viability by trypan blue exclusion and an ATP assay (ApoSENSOR™, BioVision). Polyamides were added directly to the culture medium in PBS. Nuclear localization of the polyamides was verified by deconvolution microscopy, by methods well known in the art (see e.g., Dudouet et al., Chem. Biol., 2003, 10: 859-867).
Real-Time Quantitative RT-PCR. Real-time quantitative RT-PCR (qRT-PCR) analysis was performed essentially as previously described (Chuma, et al., 2003, Hepatology 37:198-207), using the following primers for the frataxin gene: […]
RNA was standardized by quantification of GAPDH mRNA (Pattyn et al., 2003, Nucleic Acids Res. 31:122-123), and all values are expressed relative to GAPDH. qRT-PCR was performed using iScript One-Step RT-PCR kit with SYBR green (Biorad). Statistical analysis was performed on three independent quantitative RT-PCR experiments for each RNA sample.

[4] = system: mismatch DNA sequence 5′-GGAGGAGGTGGAGGAGGA-3′ from the erbB2 (Her2-neu) promoter; test: DNase I footprinting on mismatch DNA; type: binding, human; details: polyamide concentrations up to 100 nM
Experimental: Two additional molecules, FA5 [(ImPyβ)4ImβDp] and FA6 [(ImPyβ)5ImβDp], were synthesized in order to target longer regions of GAA repeats in duplex DNA; i.e., (AAG)5 (SEQ ID NO: ______) and (AAG)6 (SEQ ID NO: ______) respectively. […] As another test for sequence specificity, footprinting experiments with FA1 and FA3 and a radiolabeled DNA fragment containing a mismatch DNA sequence 5′-GGAGGAGGTGGAGGAGGA-3′ (SEQ ID NO: ______) were performed.
The first oligonucleotide shown was radiolabeled as above to generate a PCR product labeled on the GAA strand. A 150 bp PCR product containing a (GGA•TCC)6 mismatch sequence was derived from the erbB2 (Her2-neu) promoter in human genomic DNA with the following oligonucleotides: […]

[5] = quantitative DNase I footprinting, mean and standard deviation, minimum of two determinations, read-out: Binding affinity (KD)

CN(C)CCCNC(=O)CCNC(=O)c1nc(NC(=O)CCNC(=O)c2cc(NC(=O)c3nc(NC(=O)CCNC(=O)c4cc(NC(=O)c5nc(NC(=O)CCNC(=O)c6cc(NC(=O)c7nccn7C)cn6C)cn5C)cn4C)cn3C)cn2C)cn1C [FA3, (ImPyβ)3ImβDp] was tested, and the Kd ([1]; footprinting at low (~2 pM) DNA concentrations, may underestimate affinity, read-out: KD) was ~0.003 nM, the Kd [1, 5] was 0.003 ± 0.001 nM and the “concentration for complete loss of the EcoNI cleaved sticky DNA retarded band” value [2] was 50 nM. The “effect on frataxin mRNA levels, in words” value [3] was “did not increase frataxin mRNA levels” and the “binding to mismatch DNA sequence” value [4] was “Neither FA1 nor FA3 bound this DNA sequence”.
With CN(C)CCCNC(=O)CCNC(=O)c1cc(NC(=O)CCNC(=O)c2nc(NC(=O)c3nc(NC(=O)CCNC(=O)c4cc(NC(=O)c5nc(NC(=O)CCNC(=O)c6cc(NC(=O)c7nccn7C)cn6C)cn5C)cn4C)cn3C)cn2C)cn1C [FA4, (ImPyβ)2ImImβPyβDp] the Kd ([1]; (GAA)6 DNA, values in text, read-out: apparent dissociation constant (KD)) was 2 nM, the “binding affinity, times less than FA3” value ([1]; FA4 vs FA3) was ~1000 times and the “reduction of binding affinity vs match polyamide” value ([1]; mismatch vs match polyamide (FA2 vs FA1, FA4 vs FA3)) was “three orders of magnitude”. For the same molecule, the “concentration needed to affect or dissociate sticky DNA” value [2] was ≥ 5 µM.
CN(C)CCCNC(=O)CCNC(=O)c1nc(NC(=O)CCNC(=O)c2cc(NC(=O)c3nc(NC(=O)CCNC(=O)c4cc(NC(=O)c5nc(NC(=O)CCNC(=O)c6cc(NC(=O)c7nc(NC(=O)CCNC(=O)c8cc(NC(=O)c9nccn9C)cn8C)cn7C)cn6C)cn5C)cn4C)cn3C)cn2C)cn1C [FA5, (ImPyβ)4ImβDp] was tested, and the sequence specificity [1] was “less specific than FA1 or FA3”, the “binding affinity for duplex GAA•TTC repeat DNA, in words” value [1] was “comparable to that of FA1” and the Kd [1, 5] was 0.2 ± 0.02 nM.
With CN(C)CCCNC(=O)CCNC(=O)c1nc(NC(=O)CCNC(=O)c2cc(NC(=O)c3nc(NC(=O)CCNC(=O)c4cc(NC(=O)c5nc(NC(=O)CCNC(=O)c6cc(NC(=O)c7nc(NC(=O)CCNC(=O)c8cc(NC(=O)c9nc(NC(=O)CCNC(=O)c%10cc(NC(=O)c%11nccn%11C)cn%10C)cn9C)cn8C)cn7C)cn6C)cn5C)cn4C)cn3C)cn2C)cn1C [FA6, (ImPyβ)5ImβDp] the sequence specificity [1] was “less specific than FA1 or FA3”, the “binding affinity for duplex GAA•TTC repeat DNA, in words” value [1] was “comparable to that of FA1” and the Kd [1, 5] was 0.22 ± 0.08 nM.
CN(C)CCCNC(=O)CCNC(=O)c1nc(NC(=O)CCNC(=O)c2cc(NC(=O)c3nccn3C)cn2C)cn1C [ImPyβImβDp] was tested, and the binding affinity ([1]; six bp sequence 5′-AAGAAG-3′) was “low μM”.
